Legend:
[1] = target: Ephrin type-A receptor 5 (Homo sapiens, UniProt P54756); assay: Inhibition of Nano Luc-fused full length C-terminal EPHA5 (unknown origin) expressed in HEK293T cells using NanoGlo as substrate incubated for 2 hrs in presence of tracer by NanoBRET assay; type: cell-based
[2] = target: Ephrin type-A receptor 6 (Homo sapiens, UniProt Q9UF33); assay: Inhibition of Nano Luc-fused full length C-terminal EPHA6 (unknown origin) expressed in HEK293T cells using NanoGlo as substrate incubated for 2 hrs in presence of tracer by NanoBRET assay; type: cell-based
[3] = target: Ephrin type-B receptor 4 (Homo sapiens) (UniProt P54760); also: assay method not described here
[4] = target: Actin-related protein 2/3 complex subunit 4 (Homo sapiens) (UniProt P59998); also: assay method not described here
[5] = target: Argininosuccinate synthase (Homo sapiens) (UniProt P00966); also: assay method not described here
[6] = target: Sodium/potassium-transporting ATPase subunit alpha-1 (Homo sapiens) (UniProt P05023); also: assay method not described here
[7] = target: Calcium/calmodulin-dependent protein kinase type II subunit gamma (Homo sapiens) (UniProt Q13555); also: assay method not described here
[8] = target: Calpain-1 catalytic subunit (Homo sapiens) (UniProt P07384); also: assay method not described here
[9] = target: PAT complex subunit CCDC47 (Homo sapiens) (UniProt Q96A33); also: assay method not described here
[10] = target: Coatomer subunit alpha (Homo sapiens) (UniProt P53621); also: assay method not described here
[11] = target: Probable ATP-dependent RNA helicase DDX5 (Homo sapiens) (UniProt P17844); also: assay method not described here
[12] = target: Stalled ribosome sensor GCN1 (Homo sapiens) (UniProt Q92616); also: assay method not described here
[13] = species on record: Homo sapiens; also: assay method not described here
[14] = target: Heterogeneous nuclear ribonucleoprotein A3 (Homo sapiens) (UniProt P51991); also: assay method not described here
[15] = target: Heterogeneous nuclear ribonucleoprotein F (Homo sapiens) (UniProt P52597); also: assay method not described here
[16] = target: Heterogeneous nuclear ribonucleoprotein L (Homo sapiens) (UniProt P14866); also: assay method not described here
Chain of Heterogeneous nuclear ribonucleoprotein L (Homo sapiens) (P14866 whole entry): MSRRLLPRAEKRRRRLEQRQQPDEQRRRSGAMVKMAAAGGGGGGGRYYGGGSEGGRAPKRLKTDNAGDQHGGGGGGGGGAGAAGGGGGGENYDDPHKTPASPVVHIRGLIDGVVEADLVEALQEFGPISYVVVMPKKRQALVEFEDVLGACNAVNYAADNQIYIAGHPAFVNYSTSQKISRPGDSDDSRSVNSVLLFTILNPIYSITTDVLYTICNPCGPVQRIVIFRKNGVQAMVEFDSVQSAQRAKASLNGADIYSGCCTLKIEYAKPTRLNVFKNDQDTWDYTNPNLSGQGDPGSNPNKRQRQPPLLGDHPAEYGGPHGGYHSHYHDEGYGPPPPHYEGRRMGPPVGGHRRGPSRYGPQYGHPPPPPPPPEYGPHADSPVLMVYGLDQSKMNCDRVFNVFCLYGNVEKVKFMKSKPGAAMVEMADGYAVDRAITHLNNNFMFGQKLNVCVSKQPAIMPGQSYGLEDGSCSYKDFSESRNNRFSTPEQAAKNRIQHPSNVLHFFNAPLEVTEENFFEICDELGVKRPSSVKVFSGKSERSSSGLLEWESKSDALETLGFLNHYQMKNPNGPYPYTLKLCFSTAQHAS

[17] = target: Heat shock 70 kDa protein 1A/1B (Homo sapiens) (UniProt P0DMV8+P0DMV9); also: assay method not described here
[18] = target: Phosphatidylinositol 3,4,5-trisphosphate 5-phosphatase 2 (Homo sapiens) (UniProt O15357); also: assay method not described here
[19] = target: ER lumen protein-retaining receptor 2 (Homo sapiens) (UniProt P33947); also: assay method not described here
[20] = target: Galectin-3-binding protein (Homo sapiens) (UniProt Q08380); also: assay method not described here
Chain of Galectin-3-binding protein (Homo sapiens) (Q08380 whole entry): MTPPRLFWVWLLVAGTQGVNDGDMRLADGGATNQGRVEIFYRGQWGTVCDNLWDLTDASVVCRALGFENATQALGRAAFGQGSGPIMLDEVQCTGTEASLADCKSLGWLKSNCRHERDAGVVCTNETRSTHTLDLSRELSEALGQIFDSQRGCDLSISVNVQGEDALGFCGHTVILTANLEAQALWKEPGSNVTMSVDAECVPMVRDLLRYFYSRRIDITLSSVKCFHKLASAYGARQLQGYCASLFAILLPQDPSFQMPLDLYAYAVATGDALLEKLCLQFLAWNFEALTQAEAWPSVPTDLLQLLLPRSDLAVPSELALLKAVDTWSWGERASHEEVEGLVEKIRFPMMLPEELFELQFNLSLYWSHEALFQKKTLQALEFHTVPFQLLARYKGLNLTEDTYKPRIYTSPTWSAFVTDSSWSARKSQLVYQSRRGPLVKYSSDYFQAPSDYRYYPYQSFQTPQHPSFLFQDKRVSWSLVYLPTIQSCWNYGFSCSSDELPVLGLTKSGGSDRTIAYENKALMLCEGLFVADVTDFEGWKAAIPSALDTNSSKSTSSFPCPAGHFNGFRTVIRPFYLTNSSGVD

[21] = target: Mitogen-activated protein kinase kinase kinase 2 (Homo sapiens) (UniProt Q9Y2U5); also: assay method not described here
[22] = target: Mitochondrial antiviral-signaling protein (Homo sapiens) (UniProt Q7Z434); also: assay method not described here
[23] = target: DNA replication licensing factor MCM7 (Homo sapiens) (UniProt P33993); also: assay method not described here
[24] = target: Proliferation marker protein Ki-67 (Homo sapiens) (UniProt P46013); also: assay method not described here
[25] = target: 2-oxoglutarate dehydrogenase complex component E1 (Homo sapiens) (UniProt Q02218); also: assay method not described here
[26] = target: Ubiquitin thioesterase OTUB1 (Homo sapiens) (UniProt Q96FW1); also: assay method not described here
[27] = target: Serine/threonine-protein kinase PAK 6 (Homo sapiens) (UniProt Q9NQU5); also: assay method not described here
[28] = target: Protein mono-ADP-ribosyltransferase PARP16 (Homo sapiens) (UniProt Q8N5Y8); also: assay method not described here
Chain of Protein mono-ADP-ribosyltransferase PARP16 (Homo sapiens) (Q8N5Y8 whole entry): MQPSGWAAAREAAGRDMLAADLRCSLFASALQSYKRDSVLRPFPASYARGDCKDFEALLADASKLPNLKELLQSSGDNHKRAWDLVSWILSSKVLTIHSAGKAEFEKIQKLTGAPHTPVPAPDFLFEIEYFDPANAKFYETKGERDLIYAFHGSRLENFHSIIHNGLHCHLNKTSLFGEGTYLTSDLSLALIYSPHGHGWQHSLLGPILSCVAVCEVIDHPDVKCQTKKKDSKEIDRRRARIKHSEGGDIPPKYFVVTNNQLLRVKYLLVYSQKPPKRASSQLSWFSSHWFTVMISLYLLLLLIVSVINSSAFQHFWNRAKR

[29] = target: Serine/threonine-protein phosphatase PGAM5, mitochondrial (Homo sapiens) (UniProt Q96HS1); also: assay method not described here
[30] = target: cAMP-dependent protein kinase catalytic subunit beta (Homo sapiens) (UniProt P22694); also: assay method not described here
[31] = target: Pre-mRNA-processing factor 6 (Homo sapiens) (UniProt O94906); also: assay method not described here
Chain of Pre-mRNA-processing factor 6 (Homo sapiens) (O94906 whole entry): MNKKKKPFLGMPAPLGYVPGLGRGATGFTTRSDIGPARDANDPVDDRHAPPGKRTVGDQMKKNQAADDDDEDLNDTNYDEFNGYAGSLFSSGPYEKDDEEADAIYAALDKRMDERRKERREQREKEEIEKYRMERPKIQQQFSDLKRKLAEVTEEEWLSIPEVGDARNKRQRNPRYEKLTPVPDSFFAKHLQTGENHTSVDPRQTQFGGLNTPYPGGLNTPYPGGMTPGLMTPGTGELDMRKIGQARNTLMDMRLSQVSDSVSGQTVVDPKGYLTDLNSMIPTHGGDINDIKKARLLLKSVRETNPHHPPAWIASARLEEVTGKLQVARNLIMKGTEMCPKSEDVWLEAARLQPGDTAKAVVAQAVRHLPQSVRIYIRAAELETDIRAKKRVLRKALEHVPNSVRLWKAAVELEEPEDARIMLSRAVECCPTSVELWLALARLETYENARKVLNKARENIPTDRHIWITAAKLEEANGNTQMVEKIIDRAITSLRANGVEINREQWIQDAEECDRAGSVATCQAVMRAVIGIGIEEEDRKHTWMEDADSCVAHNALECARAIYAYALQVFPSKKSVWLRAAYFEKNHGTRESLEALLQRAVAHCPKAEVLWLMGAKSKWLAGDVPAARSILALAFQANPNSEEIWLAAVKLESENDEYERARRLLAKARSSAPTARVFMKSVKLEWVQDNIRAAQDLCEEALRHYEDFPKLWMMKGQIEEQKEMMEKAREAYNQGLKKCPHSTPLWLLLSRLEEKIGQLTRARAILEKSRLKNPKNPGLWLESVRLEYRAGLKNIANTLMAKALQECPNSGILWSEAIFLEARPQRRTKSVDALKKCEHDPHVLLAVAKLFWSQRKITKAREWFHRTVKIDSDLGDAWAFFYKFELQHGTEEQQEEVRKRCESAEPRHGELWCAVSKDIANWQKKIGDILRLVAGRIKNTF

[32] = target: Proteasome subunit alpha type-4 (Homo sapiens) (UniProt P25789); also: assay method not described here
[33] = target: Focal adhesion kinase 1 (Homo sapiens) (UniProt Q05397); also: assay method not described here
[34] = target: Mitochondrial Rho GTPase 2 (Homo sapiens) (UniProt Q8IXI1); also: assay method not described here
[35] = target: Large ribosomal subunit protein uL3 (Homo sapiens) (UniProt P39023); also: assay method not described here
[36] = target: Ribonucleoside-diphosphate reductase large subunit (Homo sapiens) (UniProt P23921); also: assay method not described here
[37] = target: Reticulon-4 (Homo sapiens) (UniProt Q9NQC3); also: assay method not described here
[38] = target: Single-stranded DNA-binding protein, mitochondrial (Homo sapiens) (UniProt Q04837); also: assay method not described here
[39] = target: T-complex protein 1 subunit alpha (Homo sapiens) (UniProt P17987); also: assay method not described here
[40] = target: Mitochondrial import inner membrane translocase subunit TIM50 (Homo sapiens) (UniProt Q3ZCQ8); also: assay method not described here
[41] = target: Transketolase (Homo sapiens) (UniProt P29401); also: assay method not described here
[42] = target: Transcription intermediary factor 1-beta (Homo sapiens) (UniProt Q13263); also: assay method not described here
[43] = target: Ubiquitin carboxyl-terminal hydrolase 5 (Homo sapiens) (UniProt P45974); also: assay method not described here
Chain of Ubiquitin carboxyl-terminal hydrolase 5 (Homo sapiens) (P45974 whole entry): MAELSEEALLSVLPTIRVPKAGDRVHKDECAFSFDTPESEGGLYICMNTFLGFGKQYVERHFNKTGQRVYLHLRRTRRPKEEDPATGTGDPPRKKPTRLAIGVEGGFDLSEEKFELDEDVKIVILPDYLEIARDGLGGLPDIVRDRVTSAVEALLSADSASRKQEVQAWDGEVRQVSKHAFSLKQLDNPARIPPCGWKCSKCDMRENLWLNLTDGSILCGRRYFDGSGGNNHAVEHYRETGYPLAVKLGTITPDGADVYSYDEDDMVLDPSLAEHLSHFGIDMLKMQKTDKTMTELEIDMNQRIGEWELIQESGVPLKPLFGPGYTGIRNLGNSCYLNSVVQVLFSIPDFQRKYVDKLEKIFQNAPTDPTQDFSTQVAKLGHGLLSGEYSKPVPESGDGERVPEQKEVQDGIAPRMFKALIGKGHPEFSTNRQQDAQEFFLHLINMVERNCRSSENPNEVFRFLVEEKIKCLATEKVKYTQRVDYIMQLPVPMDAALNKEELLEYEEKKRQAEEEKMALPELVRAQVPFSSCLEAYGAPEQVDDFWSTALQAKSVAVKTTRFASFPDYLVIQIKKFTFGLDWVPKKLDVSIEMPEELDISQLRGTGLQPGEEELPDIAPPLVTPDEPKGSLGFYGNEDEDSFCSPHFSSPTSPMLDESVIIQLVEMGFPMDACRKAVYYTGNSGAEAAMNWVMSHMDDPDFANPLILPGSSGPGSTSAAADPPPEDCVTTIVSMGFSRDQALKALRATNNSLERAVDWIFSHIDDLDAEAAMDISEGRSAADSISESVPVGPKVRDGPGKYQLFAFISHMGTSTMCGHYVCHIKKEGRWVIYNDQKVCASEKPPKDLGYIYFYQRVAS

[44] = target: Neurosecretory protein VGF (Homo sapiens) (UniProt O15240); also: assay method not described here
Chain of Neurosecretory protein VGF (Homo sapiens) (O15240 whole entry): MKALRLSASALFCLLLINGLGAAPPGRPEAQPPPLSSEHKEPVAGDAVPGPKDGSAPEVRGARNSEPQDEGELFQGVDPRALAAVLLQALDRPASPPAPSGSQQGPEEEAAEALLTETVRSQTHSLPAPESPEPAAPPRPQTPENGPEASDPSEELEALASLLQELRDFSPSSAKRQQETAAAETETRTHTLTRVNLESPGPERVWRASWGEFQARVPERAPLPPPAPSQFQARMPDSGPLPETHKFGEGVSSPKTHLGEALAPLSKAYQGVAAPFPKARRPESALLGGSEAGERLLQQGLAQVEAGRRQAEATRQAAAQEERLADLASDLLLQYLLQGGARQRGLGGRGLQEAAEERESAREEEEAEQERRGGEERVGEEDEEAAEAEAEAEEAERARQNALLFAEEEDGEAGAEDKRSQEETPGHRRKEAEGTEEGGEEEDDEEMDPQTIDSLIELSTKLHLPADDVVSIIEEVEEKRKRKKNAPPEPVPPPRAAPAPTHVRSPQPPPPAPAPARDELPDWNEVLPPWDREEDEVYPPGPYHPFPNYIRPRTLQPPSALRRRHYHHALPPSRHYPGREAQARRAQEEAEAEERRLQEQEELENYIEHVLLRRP

Chain of Ephrin type-A receptor 5 (P54756 whole entry, the tested form may be a part): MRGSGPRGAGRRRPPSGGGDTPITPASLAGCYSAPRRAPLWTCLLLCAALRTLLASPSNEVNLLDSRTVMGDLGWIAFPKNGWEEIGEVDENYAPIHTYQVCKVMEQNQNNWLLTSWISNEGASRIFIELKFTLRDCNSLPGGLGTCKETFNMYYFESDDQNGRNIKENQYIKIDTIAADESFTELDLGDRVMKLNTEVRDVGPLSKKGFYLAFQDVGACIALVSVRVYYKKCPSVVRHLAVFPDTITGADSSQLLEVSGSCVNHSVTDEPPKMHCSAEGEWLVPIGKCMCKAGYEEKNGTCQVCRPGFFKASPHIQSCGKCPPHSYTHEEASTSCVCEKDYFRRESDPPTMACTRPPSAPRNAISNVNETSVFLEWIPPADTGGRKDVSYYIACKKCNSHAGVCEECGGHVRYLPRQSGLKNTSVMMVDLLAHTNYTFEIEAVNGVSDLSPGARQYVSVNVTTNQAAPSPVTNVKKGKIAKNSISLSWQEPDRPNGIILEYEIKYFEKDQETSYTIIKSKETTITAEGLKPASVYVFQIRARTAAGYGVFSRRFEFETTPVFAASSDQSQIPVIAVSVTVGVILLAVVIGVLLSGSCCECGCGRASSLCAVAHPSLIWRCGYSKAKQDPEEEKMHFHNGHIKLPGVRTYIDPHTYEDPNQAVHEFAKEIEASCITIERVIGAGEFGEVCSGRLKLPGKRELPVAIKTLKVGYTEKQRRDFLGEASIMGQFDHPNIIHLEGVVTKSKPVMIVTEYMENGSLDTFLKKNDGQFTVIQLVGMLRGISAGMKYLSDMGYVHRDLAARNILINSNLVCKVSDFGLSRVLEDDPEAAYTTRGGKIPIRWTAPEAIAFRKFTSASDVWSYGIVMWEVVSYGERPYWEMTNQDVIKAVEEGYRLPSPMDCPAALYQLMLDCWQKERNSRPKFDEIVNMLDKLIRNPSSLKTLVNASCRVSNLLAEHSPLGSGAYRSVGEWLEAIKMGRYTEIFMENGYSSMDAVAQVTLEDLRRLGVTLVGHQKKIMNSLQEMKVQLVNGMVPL

Cc1ccc(C(=O)Nc2cccc(C(F)(F)F)c2)cc1Nc1nc(-c2cccnc2)nc2nn(C)cc12
IC50 [1]: 0.208 µM
IC50 [2]: > 50 µM
ED50 [3]: 2.25 µM
ED50 [4]: 15.8 µM
ED50 [5]: 0.0579 µM
ED50 [6]: 0.553 µM
ED50 [7]: 0.0517 µM
ED50 [8]: 0.161 µM
ED50 [9]: 40.6 µM
ED50 [10]: 0.652 µM
ED50 [11]: 0.0157 µM
ED50 [12]: 0.0579 µM
ED50 [13]: 0.0194 µM
ED50 [14]: 1.07 µM
ED50 [15]: 0.349 µM
ED50 [16]: 0.042 µM
ED50 [17]: 1.61 µM
ED50 [18]: 1.01 µM
ED50 [19]: 0.051 µM
ED50 [20]: 0.0814 µM
ED50 [21]: 9.44 µM
ED50 [22]: 0.394 µM
ED50 [23]: 50.3 µM
ED50 [24]: 0.0399 µM
ED50 [25]: 12.5 µM
ED50 [26]: 0.655 µM
ED50 [27]: 0.526 µM
ED50 [28]: 22200 µM
ED50 [29]: 7.34 µM
ED50 [30]: 0.00679 µM
ED50 [31]: 2.11 µM
ED50 [32]: 13 µM
ED50 [33]: 0.0476 µM
ED50 [34]: 97 µM
ED50 [35]: 10.4 µM
ED50 [36]: 5.74 µM
ED50 [37]: 3.55 µM
ED50 [38]: 0.0346 µM
ED50 [39]: 0.082 µM
ED50 [40]: 1.85 µM
ED50 [41]: 0.151 µM
ED50 [42]: 0.0787 µM
ED50 [43]: 0.00988 µM
ED50 [44]: 2.66 µM

Cc1ccc(C(=O)Nc2cccc(C(F)(F)F)c2)cc1Nc1nc(-c2cccnc2)nc2c1cnn2C
IC50 [1]: 0.0028 µM
IC50 [2]: 0.263 µM
ED50 [3]: 1.4 µM
ED50 [4]: 18.9 µM
ED50 [5]: 5.02 µM
ED50 [6]: 0.00682 µM
ED50 [7]: 0.177 µM
ED50 [8]: 3.52 µM
ED50 [9]: 0.136 µM
ED50 [10]: 0.127 µM
ED50 [11]: 1.16 µM
ED50 [12]: 0.085 µM
ED50 [13]: 2.84 µM
ED50 [14]: 0.174 µM
ED50 [15]: 22.6 µM
ED50 [16]: 16.4 µM
ED50 [17]: 0.181 µM
ED50 [18]: 0.364 µM
ED50 [19]: 0.109 µM
ED50 [20]: 9.93 µM
ED50 [21]: 0.1 µM
ED50 [22]: 5.26 µM
ED50 [23]: 5.39 µM
ED50 [24]: 4.64 µM
ED50 [25]: 0.0247 µM
ED50 [26]: 3.76 µM
ED50 [27]: 0.146 µM
ED50 [28]: 0.0016 µM
ED50 [29]: 0.809 µM
ED50 [30]: 3.65 µM
ED50 [31]: 151 µM
ED50 [32]: 0.151 µM
ED50 [33]: 10.4 µM
ED50 [34]: 1.14 µM
ED50 [35]: 2.64 µM
ED50 [36]: 1.67 µM
ED50 [37]: 0.00531 µM
ED50 [38]: 0.00621 µM
ED50 [39]: 0.0234 µM
ED50 [40]: 3.59 µM
ED50 [41]: 0.167 µM
ED50 [42]: 59.2 µM
ED50 [43]: 130 µM
ED50 [44]: 2.22 µM

— ChEMBL document CHEMBL5649169 (ChemMedChem, 2018)
